Laboratory results as given in patent US20060217340A1, “Methods and products for treating hypertension by modulation of TRPC3 channel activity” (University of Vermont and State Agricultural College, priority 2005, published 2006).

What was measured:
[1] = test system: glyceraldehyde dehydrogenase (GAPDH); assay: Western analysis of GAPDH protein expression in cerebral artery; assay type: cell-based, rat; conditions: 3 days organ culture
Description: Western Analysis. Arterial segments were homogenized in lysis buffer (5 minutes, 4° C.) containing (in mM): 40 CAPS, 1 DL-Dithiothreitol (DTT), 10 EDTA, 15 MgCl2, 115 NaCl, 1 NaOrthovanadate, 1 NaF, 2.5 Urea, and 0.25% deoxychlorate, 10% glycerol, 1% NP-40, 0.2% SDS, and 1:50 mammalian protease inhibitor cocktail (Sigma, St. Louis, Mo., USA). Equal amounts of sample protein were separated on a 10% polyacrylamide gel and transferred to a nitrocellulose membrane. The membranes were exposed to a TRPC3 or TRPC6 polyclonal antibody (anti-rabbit 1:200 dilution, Alomone Labs, Jerusalem, Israel) and a […] (GAPDH) monoclonal antibody (anti-mouse, 1:1000 dilution, Chemicon Labs, Temecula, Calif., USA). Alexa-Fluor 680® goat anti-rabbit (Molecular Probes, Eugene, Oreg., USA) and IRDyeTM800 anti-mouse (Rockland Immunochemicals, Gilbertsville, Pa., USA) were used to fluorescently label the TRPC3 and GAPDH antibodies respectively. The density of signals specific for the TRPC3 and GAPDH bands in a given lane on a membrane were measured after scanning the membrane with an Odyssey® infared imaging system (Li-COR Biosciences, Lincoln, Nebr., USA). Quantified amounts were normalized to a total protein amount lane on the polyacrylamide gel.
Oligodeoxynucleotide Sequences and Reverse Permeabilization. […]

[2] = test system: pressurized rat cerebral arteries; assay: Arterial diameter recordings (constriction) in pressurized cerebral arteries; assay type: cell-based; conditions: for change in lumen diameter: Ca2+ returned to superfusate in the presence of UTP and nimodipine; for decrease of resting diameter: extracellular KCl raised from 5 mM to 60 mM; for myogenic tone: intravascular pressure increased from 20 to 80 mm Hg
From the text: Oligodeoxynucleotide Sequences and Reverse Permeabilization. TRPC6 sense and antisense oligodeoxynucleotides (ODN's) were designed as previously described (Welsh et al 2002 Circ Res 90, 248-250) and were as follows: sense, 5′-[…]-3′ (SEQ ID: 3) and 5′-GCACACGCAGCCTCTTCAC-3′ (SEQ ID: 4) antisense, 5′-[…]-3′ (SEQ ID: 5) and 5′-[…]-3′ (SEQ ID: 6). TRPC3 sense and antisense ODN's were designed based on the rat TRPC3 gene (Ohki et al 2000 J Biol Chem 275: 39055-39060) and are as follows: sense, 5′-[…]-3′ (SEQ ID: 7) and 5′-[…]-3′ (SEQ ID: 8); anti-sense, 5′-[…]-3′ (SEQ ID: 9) and 5′-[…]-3′ (SEQ ID: 10). The last five bases on the 5′ and 3′ end were phosphorothioated in order to limit ODN degradation. For some experiments fluoroscein-isothiocyanate was conjugated to the 5′ end to allow for histological assessment of cellular uptake of the ODNs. All ODNs were synthesized and HPLC purified commercially by Qiagen (Alameda, Calif., USA). Sense and antisense ODN's (2 μM) were introduced into the arterial SMs using a reversible permeabilization procedure (Lesh et al 1995 Circ Res 77,220-230)). The arterial segments were then organ cultured for 3 days in D-MEM/F-12 culture media with L-glutamine (2 mM), penicillin (50 units/ml) and streptomycin (50 μg/ml) prior to use.
Diameter and membrane potential recordings. Endothelial cell denuded artery segments were mounted on glass pipettes in an arteriograph chamber (Living Systems, Burlington, Vt., USA), pressurized to 20 mmHg (with no flow), and superfused with warm (37° C.), gassed (95% 02/5% CO2) physiological saline solution (PSS) containing (in mM): 119 NaCl, 4.7 KCl, 24 NaHCO3, 0.2 KH2PO4, […], 1.2 MgSO4, 1.6 CaCl2, and 10.6 glucose, pH 7.4. In experiments using Ca^2+-free PSS, CaCl2 was omitted and 3 mM EGTA and 30 μM diltiazem added. In experiments with diacylglycerol induction, 300 μM of the diacylglycerol analogue OAG (1-oleyol-2-acetyl-sn-glycerol) was added. The endothelium was removed as previously described (Sun et al 1993 Endothelium 1, 115-122). To verify endothelial cell removal the arteries were pressurized to 60 mmHg and allowed to develop myogenic tone prior to exposing the vessels to 1 μM UTP. Absence of a dilation or biphasic constrictor response to 1 μM UTP indicated successful endothelial cell removal (Marelli 2001 Am J Physiol Heart Cir Physiol 281, H1759-H1766; Miyagi et al 1996 Br J Pharmacol 118, 847-856). […] Membrane potential was measured by inserting a sharp glass electrode (≈100 MΩ resistance) containing 0.5M KCl into the vessel wall. The criteria for successful vascular smooth muscle cell impalement were: (1) a sharp negative Vm deflection on entry; (2) a stable potential for at least 1 minute after entry; and (3) a sharp positive Vm deflection upon removal. Measurements were made using an electrometer (World Precision Instruments) and the data were recorded via computer using Axotape and Dataq software. Arterial diameter was measured using a video dimension analyzer (IonOptix Corporation; Milton, Mass.).
Statistical analysis. Data are expressed as means±SEM, and n indicates the number of animals. Changes in arterial diameter were measured as a percent constriction calculated as follows: [formula]

[3] = test system: smooth muscle cells isolated from sense- or antisense-treated cerebral arteries; assay: Perforated patch clamp, UTP-activated whole-cell current; assay type: cell-based, rat; conditions: 30 μM UTP
Description: Patch clamp electrophysiology. Single smooth muscle cells were enzymatically isolated from sense- or antisense-treated cerebral arteries using an isolation solution of the following composition (in mM): 60 NaCl, 58 sodium glutamate, 5.6 KCl, 2 MgCl2, 10 glucose, 0.1 CaCl2, 10 HEPES (pH 7.4) with 0.5 mg/ml papain, and 1 mg/ml dithioerythritol added. After 10 minutes, arterial segments were placed in a second isolation solution containing 0.1 mM CaCl2 and a collagenase type F and hyaluronidase mixture (1 mg/ml each). Trituration was performed with a polished wide-bore pipette and the cells were stored on ice and used the same day. Whole cell ionic currents were measured using the perforated patch method in the presence or absence of 30 μM UTP. Recording electrodes (4-7 MΩ resistance) were pulled from borosilicate glass. Plated cells were voltage clamped and held at −60 mV for 15 minutes prior to experimentation; whole cell currents were monitored while voltage was slowly ramped (−120 to +20 mV, 0.167 mV/ms); currents were not leak subtracted. The bath solution contained (in mM): 120 NaCl, 1.2 MgCl2, 1.8 CaCl2, 10 HEPES (pH 7.4), and 10 glucose. The pipette solution contained (in mM): 120 CsCl, 3 MgCl2, 0.1 EGTA, 10 HEPES (pH 7.2), 10 glucose and 200 μg/ml amphotericin B. A series resistance of approximately 40 MΩ was accepted for all perforated patch clamp experiments. Membrane currents were filtered at 1 kHz, digitized at 5 kHz and stored in a personal computer system for subsequent analysis. pClamp 8.1 and Clampfit 8.1 (Axon Instruments) were used to record and analyze membrane currents. Cell capacitance was measured with the cancellation circuitry of the voltage-clamp amplifier (Axopatch 200A amplifier, Axon Instruments, Sunnyvale, Calif., USA). All current recordings were performed at room temperature (22° C.).

[4] = 1 μM UTP, paired arteries, original recordings (FIG. 7A)

Substance	effect on the expression of GAPDH [1]	generalized inhibitory effect on arterial contractility [2]	constriction [2, 4] [%]	constriction ([2]; 300 μM OAG) [%]	reduction of UTP-induced constriction compared with sense-treated arteries ([2]; 10^−5 M UTP) [%]	reduction of UTP-induced constriction compared with sense-treated arteries ([2]; 10^−6 M UTP)	change in lumen diameter [2] [μm]	decrease of resting diameter [2] [%]	myogenic tone [2] [%]	constrictions versus sense treated arteries ([2]; low concentration of UTP (0.1 to 1.0 μM))	SMCs in which the response to UTP was absent [3]	SMCs in which the response to UTP was greatly suppressed [3]	cells with UTP-activated whole cell current ([3]; voltage ramps −120 mV to 20 mV)
5′-GAGAACCATGAACTGGAATA-3′ (SEQ ID: 9) and 5′-ACGACCAACACGACCAGACA-3′ (SEQ ID: 10) (phosphorothioate ends, further chemistry not given here) [TRPC3 antisense, antisense ODNs based on the rat TRPC3 gene; last five bases on the 5′ and 3′ end phosphorothioated]	no effect	no generalized inhibitory effect	30	1±1	37	approximately 61%	−85±17	57±9	27±5	significantly less	3 of 5	2 of 5	–
5′-TATTCCAGTTCATGGTTCTC-3′ (SEQ ID: 7) and 5′-TGTCTGGTCGTGTTGGTCGT-3′ (SEQ ID: 8) (phosphorothioate ends, further chemistry not given here) [TRPC3 sense, sense control ODNs based on the rat TRPC3 gene; end bases phosphorothioated]	–	–	38	17±3	–	–	−128±8	58±12	26±4	–	–	–	8 of 9
